Values of other authors in patent publication EP0837672B9, “PREPARATIONS AND METHODS FOR THE TREATMENT OF T CELL MEDIATED DISEASES” (YEDA RESEARCH AND DEVELOPMENT CO. LTD., priority 1995, dated 2005).

System: mice
Conditions: administered to mice sc in an oil vehicle such as incomplete Freund's adjuvant (IFA)

Row | Substance | peptide therapy for treatment of IDDM
1 | p12: peptide corresponding to positions 166-185 of the human hsp60 sequence (EEIAQVATISANGDKEIGNI; UniProt P10809 166-185, looked up, fragment) | effective
2 | p32: peptide corresponding to positions 466-485 of the human hsp60 sequence (EIIKRTLKIPAMTIAKNAGV; UniProt P10809 466-485, looked up, fragment) | effective
3 | p277: peptide corresponding to positions 437-460 of the human hsp 60 sequence (VLGGGCALLRCIPALDSLTPANED; UniProt P10809 437-460, looked up, fragment) | effective
